Measurements taken from PubChem BioAssay AID192 (DTP/NCI, 2004).
Where “and” joins values, the source holds several entries; their conditions need not be identical. Identical values can stand only once. Toxic doses and inconclusive results are not listed. Numbered stars: 1 amine (or outer) side, 2 acyl side, 3 side chain; on linkers, the order of the positions; unused ones are H or OH. Bridge positions count the residues as written; N and C are the ends. Square brackets hold non-standard residues; d marks the D form. Peptide text beside a SMILES is read from it. I, II: the chains in the order shown. Actinocin(9to1) = Cc1c2oc3c(C)ccc(C(=O)[*:1])c3nc-2c(C(=O)[*:2])c(N)c1=O; NMeV = CN[CH](C(=O)O)C(C)C; Pip = O=C(O)[CH]1CCCCN1; Sar = CNCC(=O)O

Test system: BDF1 mice, B16 melanoma ip, median survival T/C
Test: NCI In Vivo Anticancer Drug Screen. Data for tumor model B16 Melanoma (intraperitoneal) in B6D2F1 (BDF1) mice
Settings: endpoint: median survival time, higher = longer survival
Summary of the method: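 Antitumor activity is assessed in mice bearing a transplanted tumor, with survival or tumor size compared against vehicle-dosed controls and expressed as T/C.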

[1] = dose: 50.0 mg/kg/injection, schedule: Q01DX009 (ip), vehicle: Klucel (hydroxypropylcellulose) (HPC)
[2] = dose: 100.0 mg/kg/injection, schedule: Q01DX009 (ip), vehicle: Klucel (hydroxypropylcellulose) (HPC)
[3] = dose: 100.0 mg/kg/injection, schedule: Q04DX003 (ip), vehicle: Klucel (hydroxypropylcellulose) (HPC)
[4] = dose: 200.0 mg/kg/injection, schedule: Q04DX003 (ip), vehicle: Klucel (hydroxypropylcellulose) (HPC)
[5] = dose: 200.0 mg/kg/injection, schedule: Q01DX009 (ip), vehicle: Klucel (hydroxypropylcellulose) (HPC)
[6] = dose: 400.0 mg/kg/injection, schedule: Q01DX009 (ip), vehicle: Klucel (hydroxypropylcellulose) (HPC)

OCC1(CO)COC2(CCCCC2)N1
T/C (dose: 12.5 mg/kg/injection, schedule: Q01DX009 (ip), vehicle: saline): 110 % of control
T/C (dose: 25.0 mg/kg/injection, schedule: Q01DX009 (ip), vehicle: saline): 116 % of control
T/C (dose: 50.0 mg/kg/injection, schedule: Q01DX009 (ip), vehicle: saline): 109 % of control
T/C (dose: 100.0 mg/kg/injection, schedule: Q01DX009 (ip), vehicle: saline): 103 % of control
T/C (dose: 200.0 mg/kg/injection, schedule: Q01DX009 (ip), vehicle: saline): 112 % of control
T/C (dose: 400.0 mg/kg/injection, schedule: Q01DX009 (ip), vehicle: saline): 108 % of control

COc1cc2c(c(OC)c1O)-c1ccc(OC)c(=O)cc1[C@@H](NC(=O)C(F)(F)F)CC2
T/C (dose: 0.62 mg/kg/injection, schedule: Q01DX009 (ip), vehicle: Klucel (hydroxypropylcellulose) (HPC)): 121 % of control
T/C (dose: 1.25 mg/kg/injection, schedule: Q01DX009 (ip), vehicle: Klucel (hydroxypropylcellulose) (HPC)): 117 % of control and 124 % of control
T/C (dose: 2.5 mg/kg/injection, schedule: Q01DX009 (ip), vehicle: Klucel (hydroxypropylcellulose) (HPC)): 116 % of control
T/C (dose: 5.0 mg/kg/injection, schedule: Q01DX009 (ip), vehicle: Klucel (hydroxypropylcellulose) (HPC)): 118 % of control

O=C(O)c1ccccc1C(=O)Nc1cc(Cl)ccc1Cl
T/C [1]: 100 % of control
T/C [2]: 94 % of control

CCN(C)c1cc2c3c(c1)CCCN3CCC2
T/C (dose: 0.63 mg/kg/injection, schedule: Q01DX009 (ip), vehicle: saline): 111 % of control
T/C (dose: 1.25 mg/kg/injection, schedule: Q01DX009 (ip), vehicle: saline): 95 % of control
T/C (dose: 2.5 mg/kg/injection, schedule: Q01DX009 (ip), vehicle: saline): 101 % of control
T/C (dose: 5.0 mg/kg/injection, schedule: Q01DX009 (ip), vehicle: saline): 93 % of control

O=[N+]([O-])c1cccc2ncccc12
T/C (dose: 50.0 mg/kg/injection, schedule: Q04DX003 (ip), vehicle: Klucel (hydroxypropylcellulose) (HPC)): 100 % of control
T/C [3]: 97 % of control
T/C [4]: 91 % of control

Clc1ccc(Br)c(Cl)c1
T/C [2]: 93 % of control
T/C [5]: 93 % of control
T/C [6]: 93 % of control

O=[N+]([O-])c1cccc(N=Cc2ccccc2)c1
T/C (dose: 66.0 mg/kg/injection, schedule: Q01DX009 (ip), vehicle: Klucel (hydroxypropylcellulose) (HPC)): 102 % of control
T/C (dose: 150.0 mg/kg/injection, schedule: Q01DX009 (ip), vehicle: Klucel (hydroxypropylcellulose) (HPC)): 122 % of control

Nc1ncnc2c1ncn2Cc1ccccc1
T/C [1]: 89 % of control and 90 % of control
T/C [2]: 90 % of control and 100 % of control
T/C [5]: 86 % of control

COc1cc2c(cc1OC)C(CNC(=O)/C=C/c1ccccc1)C2 (stereo unspecified)
T/C [2]: 122 % of control
T/C [5]: 97 % of control
T/C [6]: 94 % of control

CCCCCCCCCC(=O)N(C)OC
T/C (dose: 12.5 mg/kg/injection, schedule: Q04DX003 (ip), vehicle: saline with Tween-80): 100 % of control
T/C (dose: 25.0 mg/kg/injection, schedule: Q04DX003 (ip), vehicle: saline with Tween-80): 104 % of control
T/C (dose: 50.0 mg/kg/injection, schedule: Q04DX003 (ip), vehicle: saline with Tween-80): 100 % of control

CC(=O)Nc1ccc(C#N)c2ccccc12
T/C [2]: 124 % of control
T/C [5]: 111 % of control
T/C [6]: 111 % of control

CCCCn1c(O)c(C=N)c(=O)n(CCCC)c1=O
T/C (dose: 3.12 mg/kg/injection, schedule: Q01DX009 (ip), vehicle: saline with Tween-80): 109 % of control
T/C (dose: 6.25 mg/kg/injection, schedule: Q01DX009 (ip), vehicle: saline with Tween-80): 97 % of control

O=C1NC(c2cccc3ccccc23)Nc2ccccc21 (stereo unspecified)
T/C (dose: 15.6 mg/kg/injection, schedule: Q01DX009 (ip), vehicle: Klucel (hydroxypropylcellulose) (HPC)): 97 % of control
T/C (dose: 31.2 mg/kg/injection, schedule: Q01DX009 (ip), vehicle: Klucel (hydroxypropylcellulose) (HPC)): 100 % of control
T/C (dose: 62.5 mg/kg/injection, schedule: Q01DX009 (ip), vehicle: Klucel (hydroxypropylcellulose) (HPC)): 104 % of control
T/C (dose: 125.0 mg/kg/injection, schedule: Q01DX009 (ip), vehicle: Klucel (hydroxypropylcellulose) (HPC)): 108 % of control

CC(=O)NC(Cc1cc(I)c(O)c(I)c1)C(=O)O (stereo unspecified)
T/C (dose: 6.25 mg/kg/injection, schedule: Q01DX009 (ip), vehicle: Klucel (hydroxypropylcellulose) (HPC)): 103 % of control
T/C (dose: 12.5 mg/kg/injection, schedule: Q01DX009 (ip), vehicle: Klucel (hydroxypropylcellulose) (HPC)): 108 % of control
T/C (dose: 25.0 mg/kg/injection, schedule: Q01DX009 (ip), vehicle: Klucel (hydroxypropylcellulose) (HPC)): 96 % of control and 101 % of control
T/C [1]: 95 % of control
T/C [2]: 98 % of control
T/C [5]: 93 % of control

Cc1c2oc3c(C)ccc(C(=O)NC4C(=O)NC(C(C)C)C(=O)N5CCCCC5C(=O)N(C)CC(=O)N(C)C(C(C)C)C(=O)OC4C)c3nc-2c(C(=O)NC2C(=O)NC(C(C)C)C(=O)N3CCCCC3C(=O)N(C)CC(=O)N(C)C(C(C)C)C(=O)OC2C)c(N)c1=O (stereo unspecified) (I: TV[Pip][Sar][NMeV] / II: TV[Pip][Sar][NMeV]; ester I:1-I:C, II:1-II:C; linker I:N-II:N via Actinocin(9to1); configuration not given here)
T/C (dose: 0.25 mg/kg/injection, schedule: Q01DX009 (ip), vehicle: saline + alcohol): 120 % of control
T/C (dose: 0.5 mg/kg/injection, schedule: Q01DX009 (ip), vehicle: saline + alcohol): 123 % of control
T/C (dose: 0.75 mg/kg/injection, schedule: Q04DX003 (ip), vehicle: saline + alcohol): 99 % of control and 116 % of control
T/C (dose: 1.5 mg/kg/injection, schedule: Q04DX003 (ip), vehicle: saline + alcohol): 111 % of control and 116 % of control
T/C (dose: 2.0 mg/kg/injection, schedule: Q01DX009 (ip), vehicle: saline + alcohol): 157 % of control
T/C (dose: 6.0 mg/kg/injection, schedule: Q04DX003 (ip), vehicle: saline + alcohol): 155 % of control

[N-]=[N+]=C1N=CN=C1c1ncn[nH]1
T/C (dose: 3.12 mg/kg/injection, schedule: Q01DX009 (ip), vehicle: carboxymethylcellulose (CMC)): 107 % of control
T/C (dose: 6.25 mg/kg/injection, schedule: Q01DX009 (ip), vehicle: carboxymethylcellulose (CMC)): 119 % of control

c1ccc(CN=C(c2ccccc2)c2ccccc2)cc1
T/C [3]: 100 % of control
T/C [4]: 95 % of control
T/C (dose: 400.0 mg/kg/injection, schedule: Q04DX003 (ip), vehicle: Klucel (hydroxypropylcellulose) (HPC)): 100 % of control

Nc1c(Br)cc2c(c1Br)Cc1cc(Cl)ccc1-2
T/C (dose: 6.25 mg/kg/injection, schedule: Q01DX009 (ip), vehicle: other): 108 % of control
T/C (dose: 12.5 mg/kg/injection, schedule: Q01DX009 (ip), vehicle: other): 96 % of control
T/C (dose: 25.0 mg/kg/injection, schedule: Q01DX009 (ip), vehicle: other): 96 % of control
T/C [1]: 94 % of control
T/C (dose: 50.0 mg/kg/injection, schedule: Q01DX009 (ip), vehicle: other): 89 % of control
T/C [2]: 107 % of control
T/C (dose: 100.0 mg/kg/injection, schedule: Q04DX003 (ip), vehicle: other): 94 % of control
T/C (dose: 200.0 mg/kg/injection, schedule: Q04DX003 (ip), vehicle: other): 86 % of control

O=C(Nc1ccc(C(=O)Nc2cc(S(=O)(=O)O)cc3cccc(S(=O)(=O)O)c23)cc1)Nc1ccc(C(=O)Nc2cc(S(=O)(=O)O)cc3cccc(S(=O)(=O)O)c23)cc1
T/C [1]: 108 % of control
T/C [2]: 113 % of control
T/C [5]: 100 % of control

O=C1NC(=O)/C(=C/C=C/c2ccccc2)S1
T/C (dose: 12.5 mg/kg/injection, schedule: Q01DX009 (ip), vehicle: saline with Tween-80): 99 % of control and 114 % of control
T/C (dose: 25.0 mg/kg/injection, schedule: Q01DX009 (ip), vehicle: saline with Tween-80): 97 % of control and 115 % of control
T/C (dose: 50.0 mg/kg/injection, schedule: Q01DX009 (ip), vehicle: saline with Tween-80): 99 % of control and 103 % of control
T/C (dose: 100.0 mg/kg/injection, schedule: Q01DX009 (ip), vehicle: saline with Tween-80): 99 % of control and 108 % of control
T/C (dose: 200.0 mg/kg/injection, schedule: Q01DX009 (ip), vehicle: saline with Tween-80): 114 % of control
T/C (dose: 400.0 mg/kg/injection, schedule: Q01DX009 (ip), vehicle: saline with Tween-80): 98 % of control
